We go through seven molecules from patent US4663332A, “5-substituted N-alkylated tetrazoles” (Hoffman-La Roche Inc., priority 1985, dated 1987).

The term IC50 denotes the midpoint of a concentration-inhibition curve. Lower therefore signals higher potency. What is called inhibition in vivo is how much of the control response was suppressed.

Experiment [1] deals with T1, PAF binding to dog platelets (Canis lupus familiaris, UniProt A0A8I3NSH0).
T1 construct: from tissue; host or cells: washed platelets from citrate-treated dog blood
T1 sequence (A0A8I3NSH0 1-343): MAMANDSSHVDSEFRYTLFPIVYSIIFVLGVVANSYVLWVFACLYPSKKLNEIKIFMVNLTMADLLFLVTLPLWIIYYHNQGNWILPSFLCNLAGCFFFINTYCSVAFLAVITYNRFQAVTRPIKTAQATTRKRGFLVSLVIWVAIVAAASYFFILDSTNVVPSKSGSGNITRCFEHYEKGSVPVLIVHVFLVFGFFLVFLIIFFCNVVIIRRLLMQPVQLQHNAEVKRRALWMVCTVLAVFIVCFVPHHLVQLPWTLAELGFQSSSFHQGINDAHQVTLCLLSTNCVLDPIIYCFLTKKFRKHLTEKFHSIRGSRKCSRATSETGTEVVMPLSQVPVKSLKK
Put plainly: PAF Radioreceptor Binding Assay (PAF Binding). To be noted: inhibition of 3H-PAF binding to dog platelets, 10 min, room temperature. As to the method: (1) PAF Radioreceptor Binding Assay (PAF Binding)
Platelet rich plasma is prepared by centrifugation of citrate-treated dog blood. Acidification to pH 6.5 with 0.15M citric acid and centrifugation for 10 minutes at 1000×g yields a platelet pellet which is then washed by resuspension in EDTA-Phosphate Buffered Saline (PBS) and recentrifuged. The washed platelet preparation is adjusted to 2×10^7 platelets/50 μl in 0.1% bovine serum albumin-PBS.
To a 400 μl microfuge tube containing 50 μl silicone oil (specific gravity 1.023) is added buffer, PAF standard or analog, or an extract to bring the aqueous volume to 150 μl. 50 μl of ^3 H-PAF (10,000 cpm, 45 Ci/mM) is added followed by 2×10^7 dog platelets. After mixing, incubating for 10 minutes at room temperature, and centrifuging for 1 minute in a Beckman Microfuge B (8000×g), the pellet is removed by clipping off the tip of the tube, the platelets are solubilized with 200 μl of 50% methanol and counted in 10 ml of Aquasol. […] Results obtained with representative copounds of the present invention in this assay are summarized hereinafter in Tables I and II. IC50 is drug concentration (μMolar) which inhibits PAF binding to dog platelets by 50%.

Another experiment concerns PAF. Put plainly: Inhibition of PAF Induced Guinea Pig Bronchoconstriction Test (Inhib. of PAF Broncho.). The class given is in vivo, guinea pig (Hartley strain). To be noted: Cavia porcellus, iv; 1 mg/kg i.v. (1 min. pretreat). As to the method: (3) Inhibition of PAF Induced Guinea Pig Bronchoconstriction Test (Inhib. of PAF Broncho.)
Male guinea pigs (Hartley strain) weighing 300 to 500 g are anesthetized with urethane (2 g/kg) intraperitoneally and a polyethylene cannula is inserted into the jugular vein for drug administration. Tracheal pressure is recorded from a cannula inserted in the trachea and connected to a Statham pressure transducer. Propranolol (0.1 mg/kg) is administered intravenously five minutes before challenge with synthetic PAF, the animal's skeletal muscles are then paralyzed with succinylcholine (1.2 mg/kg i.v.), and the animal is respirated using a Harvard small animal respirator operating at 40 breaths/min and 2.5 cc stroke volume. Under these conditions PAF induces a dose-dependent increase in ventilatory pressure over a dose range of 0.5 to 5 μg/kg i.v. For screening purposes animals are challenged with a single dose of PAF (10 μg/kg i.v.).
The peak increase in ventilatory pressure (cm H2 O) is recorded for three control animals and five drug-treated animals and the percent inhibition determined from the following formula [formula] Results obtained with representative compounds of the invention in this test are summarized hereinafter in Tables I and II.

Turning to `CCCc1c(OCCCc2nnn(CCCc3cccnc3)n2)ccc(C(C)=O)c1O` [3 3 3-pyridyl, 1-[2-hydroxy-3-propyl-4-[3-[2-[3-(3-pyridinyl)propyl]-2H-tetrazol-5-yl]propoxy]phenyl]ethanone], in experiment [1], the IC50 is over 1000 nM. Moreover, the inhibition in vivo at 1 mg/kg in the experiment on PAF came out at 13 ± 7%.

On to `CCCc1c(OCCCc2nnn(CCCCc3cccnc3)n2)ccc(C(C)=O)c1O` [3 4 3-pyridyl, 1-[2-Hydroxy-3-propyl-4-[3-[2-[4-(3-pyridinyl)butyl]-2H-tetrazol-5-yl]propoxy]phenyl]ethanone], for which the IC50 in experiment [1] stood at 1000 nM. Besides, in the experiment on PAF, the inhibition in vivo at 1 mg/kg turned out to be 38 ± 14%.

Molecule `CCCc1c(OCCCCc2nnn(CCc3cccnc3)n2)ccc(C(C)=O)c1O` [4 2 3-pyridyl, 1-[2-Hydroxy-3-propyl-4-[4-[2-[2-(3-pyridinyl)ethyl]-2H-tetrazol-5-yl]butoxy]phenyl]ethanone] came in with an IC50 in experiment [1] of over 1000 nM.

Molecule `CCCc1c(OCCCCc2nnn(CCCn3ccnc3)n2)ccc(C(C)=O)c1O` [4 3 1-imidazolyl, 1-[2-Hydroxy-3-propyl-4-[4-[2-[3-(1H-imidazol-1-yl)propyl]-2H-tetrazol-5-yl]butoxy]phenyl]-ethanone] showed a 50% inhibitory concentration (IC50) in experiment [1] of over 1000 nM. The inhibition in vivo at 1 mg/kg in the experiment on PAF came out at 30 ± 15%.

In turn, `CCCc1c(OCCCCc2nnn(CCCc3cccnc3)n2)ccc(C(C)=O)c1O` [4 3 3-pyridyl, 1-[2-Hydroxy-3-propyl-4-[4-[2-[3-(3-pyridinyl)propyl]-2H-tetrazol-5-yl]butoxy]phenyl]ethanone] had a 50% inhibitory concentration (IC50) in experiment [1] of over 1000 nM. The inhibition in vivo at 1 mg/kg with PAF stood at 55 ± 9%.

In the case of `CCCc1c(OCCCCCc2nnn(Cc3cccnc3)n2)ccc(C(C)=O)c1O` [5 1 3-pyridyl], in experiment [1], the IC50 is over 1000 nM.

Molecule `CCCc1c(OCCCCCc2nnnn2Cc2cccnc2)ccc(C(C)=O)c1O` [H H 5 1 3-pyridyl, 1-[2-Hydroxy-3-propyl-4-[5-[1-(3-pyridinyl)methyl-1H-tetrazol-5-yl]-pentyloxy]phenyl]ethanone] had an IC50 in experiment [1] of 800 nM.
